Measurements: patent US11427548B2 (Arvinas Operations, Inc., priority 2015, dated 2022)
Where two headings read alike, the source gives them in different places.

Molecular target: T1, Androgen Receptor (Homo sapiens, UniProt P10275)
T1 construct: endogenous in cells; host or cells: VCaP cells
T1 sequence (P10275 1-920): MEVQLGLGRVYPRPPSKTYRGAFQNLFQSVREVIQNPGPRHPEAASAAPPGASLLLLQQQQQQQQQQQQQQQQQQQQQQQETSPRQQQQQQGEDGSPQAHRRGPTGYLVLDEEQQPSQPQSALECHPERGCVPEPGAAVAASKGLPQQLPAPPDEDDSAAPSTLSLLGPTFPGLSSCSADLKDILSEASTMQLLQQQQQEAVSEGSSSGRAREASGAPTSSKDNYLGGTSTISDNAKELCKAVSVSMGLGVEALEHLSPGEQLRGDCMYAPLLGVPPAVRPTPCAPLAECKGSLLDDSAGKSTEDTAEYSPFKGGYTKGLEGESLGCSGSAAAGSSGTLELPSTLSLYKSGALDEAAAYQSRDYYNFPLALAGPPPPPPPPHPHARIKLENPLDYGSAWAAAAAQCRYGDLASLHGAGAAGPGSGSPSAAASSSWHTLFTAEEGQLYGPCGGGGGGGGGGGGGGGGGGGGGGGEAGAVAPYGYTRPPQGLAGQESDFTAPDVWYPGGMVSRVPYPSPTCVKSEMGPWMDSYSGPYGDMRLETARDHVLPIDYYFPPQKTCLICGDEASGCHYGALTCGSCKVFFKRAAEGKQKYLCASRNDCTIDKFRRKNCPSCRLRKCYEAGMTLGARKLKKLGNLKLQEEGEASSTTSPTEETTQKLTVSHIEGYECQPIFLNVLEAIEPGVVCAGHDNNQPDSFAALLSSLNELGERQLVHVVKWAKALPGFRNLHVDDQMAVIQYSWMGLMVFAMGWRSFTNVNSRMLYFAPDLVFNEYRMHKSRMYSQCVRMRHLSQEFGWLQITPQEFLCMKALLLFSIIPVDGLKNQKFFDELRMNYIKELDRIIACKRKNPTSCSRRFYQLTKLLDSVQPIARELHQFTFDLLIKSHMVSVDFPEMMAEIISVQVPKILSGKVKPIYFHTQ
Test: Androgen Receptor ELISA assay (PathScan AR ELISA) in VCaP cells: AR degradation, Dmax and DC50
Format: cell-based
Conditions: for Dmax: VCaP, read-out: VCaP Dmax (%); for DC50: read-out: VCaP DC50, concentration that caused 50% Androgen Receptor degradation
Summary of the method: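 VCaP cells, 30,000/well, grown ≥3 days in phenol red-free RPMI with 5% charcoal-stripped FBS; compound added in 0.1% DMSO with 0.1 nM R1881, 7 half-log doses, 24 h. Lysate AR quantified by PathScan sandwich ELISA, HRP/TMB read at 450 nm, giving DC50 and Dmax.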

SMILES | Dmax [%] | DC50 (VCaP cells) [nM] | DC50 (VCaP cells (Table 32)) [nM]
Cc1ncsc1-c1ccc(CNC(=O)[C@@H]2C[C@@H](O)CN2C(=O)[C@@H](NC(=O)COCCCOCCCCOc2ccc(N3C(=S)N(c4ccc(C#N)c(C(F)(F)F)c4)C(=O)C34CCN(C)CC4)cc2)C(C)(C)C)cc1 [Example 51, (2S,4R)-1-[(2S)-2-(2-{3-[4-(4-{3-[4-cyano-3-(trifluoromethyl)phenyl]-8-methyl-4-oxo-2-sulfanylidene-1,3,8-triazaspiro[4.5]decan-1-yl}phenoxy)butoxy]propoxy}acetamido)-3,3-dimethylbutanoyl]-4-hydroxy-N-{[4-(4-methyl-1,3-thiazol-5-yl)phenyl]methyl}pyrrolidine-2-carboxamide] | 26 to 50 | < 50 | –
Cc1ncsc1-c1ccc(CNC(=O)[C@@H]2C[C@@H](O)CN2C(=O)[C@@H](NC(=O)COCCCCOCCCOc2ccc(N3C(=S)N(c4ccc(C#N)c(C(F)(F)F)c4)C(=O)C3(C)C)cc2F)C(C)(C)C)cc1 [Example 53, (2S,4R)-1-[(2S)-2-(2-{4-[3-(4-{3-[4-cyano-3-(trifluoromethyl)phenyl]-5,5-dimethyl-4-oxo-2-sulfanylideneimidazolidin-1-yl}-2-fluorophenoxy)propoxy]butoxy}acetamido)-3,3-dimethylbutanoyl]-4-hydroxy-N-{[4-(4-methyl-1,3-thiazol-5-yl)phenyl]methyl}pyrrolidine-2-carboxamide] | > 71 | 51 to 500 | –
CC(C)(C)[C@H](NC(=O)COCC#CC#CCOc1ccc(N2C(=S)N(c3ccc(C#N)c(Cl)c3)C(=O)C2(C)C)cc1F)C(=O)N1C[C@H](O)C[C@H]1C(=O)NCc1ccc(-c2cnco2)cc1 [Example 60, (2S,4R)-1-[(2S)-2-{2-[(6-{4-[3-(3-chloro-4-cyanophenyl)-5,5-dimethyl-4-oxo-2-sulfanylideneimidazolidin-1-yl]-2-fluorophenoxy}hexa-2,4-diyn-1-yl)oxy]acetamido}-3,3-dimethylbutanoyl]-4-hydroxy-N-{[4-(1,3-oxazol-5-yl)phenyl]methyl}pyrrolidine-2-carboxamide] | 51 to 70 | 51 to 500 | –
CC(C)(C)[C@H](NC(=O)COCC#CC#CCOc1ccc(N2C(=S)N(c3ccc(C#N)c(C(F)(F)F)c3)C(=O)C2(C)C)cc1F)C(=O)N1C[C@H](O)C[C@H]1C(=O)NCc1ccc(-c2cnco2)cc1 [Example 61, (2S,4R)-1-[(2S)-2-(2-{[6-(4-{3-[4-cyano-3-(trifluoromethyl)phenyl]-5,5-dimethyl-4-oxo-2-sulfanylideneimidazolidin-1-yl}-2-fluorophenoxy)hexa-2,4-diyn-1-yl]oxy}acetamido)-3,3-dimethylbutanoyl]-4-hydroxy-N-{[4-(1,3-oxazol-5-yl)phenyl]methyl}pyrrolidine-2-carboxamide] | 51 to 70 | 51 to 500 | –
Cc1ncsc1-c1ccc(CNC(=O)[C@@H]2C[C@@H](O)CN2C(=O)[C@@H](NC(=O)CCOCCOc2ccc(-c3ccc(N4C(=S)N(c5ccc(C#N)c(C(F)(F)F)c5)C(=O)C4(C)C)cc3)cn2)C(C)(C)C)cc1 [Example 86] | 26 to 50 | – | < 50
Cc1ncsc1-c1ccc(CNC(=O)[C@@H]2C[C@@H](O)CN2C(=O)[C@@H](NC(=O)CCOCCOc2ccc(-c3ccc(N4C(=S)N(c5ccc(C#N)c(C(F)(F)F)c5)C(=O)C4(C)C)cc3)nc2)C(C)(C)C)cc1 [Example 87] | 26 to 50 | – | < 50
CC(C)(C)[C@H](NC(=O)COCCCCOc1ccc(-c2ccc(N3C(=S)N(c4ccc(C#N)c(Cl)c4)C(=O)C3(C)C)cc2)nc1)C(=O)N1C[C@H](O)C[C@H]1C(=O)NCc1ccc(-c2cnco2)cc1 [Example 89] | > 71 | – | < 50
CC(C)(C)[C@H](NC(=O)COCCCCOc1ccc(-c2ccc(N3C(=S)N(c4ccc(C#N)c(Cl)c4)C(=O)C3(C)C)cc2)cc1)C(=O)N1C[C@H](O)C[C@H]1C(=O)NCc1ccc(-c2cnco2)cc1 [Example 94, (2S,4R)-1-[(2S)-2-{2-[4-(4-{4-[3-(3-chloro-4-cyanophenyl)-5,5-dimethyl-4-oxo-2-sulfanylideneimidazolidin-1-yl]phenyl}phenoxy)butoxy]acetamido}-3,3-dimethylbutanoyl]-4-hydroxy-N-{[4-(1,3-oxazol-5-yl)phenyl]methyl}pyrrolidine-2-carboxamide] | > 71 | – | < 50
Cc1ncsc1-c1ccc([C@H](C)NC(=O)[C@@H]2C[C@@H](O)CN2C(=O)[C@@H](NC(=O)COCCCCOc2ccc(-c3ccc(N4C(=S)N(c5ccc(C#N)c(C(F)(F)F)c5)C(=O)C4(C)C)cc3)cc2)C(C)(C)C)cc1 [Example 95, (2S,4R)-1-[(2S)-2-(2-{4-[4-(4-{3-[4-cyano-3-(trifluoromethyl)phenyl]-5,5-dimethyl-4-oxo-2-sulfanylideneimidazolidin-1-yl}phenyl)phenoxy]butoxy}acetamido)-3,3-dimethylbutanoyl]-4-hydroxy-N-[(1S)-1-[4-(4-methyl-1,3-thiazol-5-yl)phenyl]ethyl]pyrrolidine-2-carboxamide] | > 71 | – | < 50
CC(C)(C)[C@H](NC(=O)COCCCCOc1ccc(-c2ccc(N3C(=S)N(c4ccc(C#N)c(C(F)(F)F)c4)C(=O)C3(C)C)cc2)cc1)C(=O)N1C[C@H](O)C[C@H]1C(=O)NCc1ccc(-c2cnco2)cc1 [Example 96, (2S,4R)-1-[(2S)-2-(2-{4-[4-(4-{3-[4-cyano-3-(trifluoromethyl)phenyl]-5,5-dimethyl-4-oxo-2-sulfanylideneimidazolidin-1-yl}phenyl)phenoxy]butoxy}acetamido)-3,3-dimethylbutanoyl]-4-hydroxy-N-{[4-(1,3-oxazol-5-yl)phenyl]methyl}pyrrolidine-2-carboxamide] | 51 to 70 | – | < 50
Cc1ncsc1-c1ccc(CNC(=O)[C@@H]2C[C@@H](O)CN2C(=O)[C@@H](NC(=O)COCCCCOc2cccc(-c3ccc(N4C(=S)N(c5ccc(C#N)c(C(F)(F)F)c5)C(=O)C4(C)C)cc3)c2)C(C)(C)C)cc1 [Example 99, (2S,4R)-1-[(2S)-2-(2-{4-[3-(4-{3-[4-cyano-3-(trifluoromethyl)phenyl]-5,5-dimethyl-4-oxo-2-sulfanylideneimidazolidin-1-yl}phenyl)phenoxy]butoxy}acetamido)-3,3-dimethylbutanoyl]-4-hydroxy-N-{[4-(4-methyl-1,3-thiazol-5-yl)phenyl]methyl}pyrrolidine-2-carboxamide] | 51 to 70 | – | < 50
Cc1ncoc1-c1ccc(CNC(=O)[C@@H]2C[C@@H](O)CN2C(=O)[C@@H](NC(=O)COCCCCOc2ccc(-c3ccc(N4C(=S)N(c5ccc(C#N)c(Cl)c5)C(=O)C4(C)C)c(F)c3)cc2)C(C)(C)C)cc1 [Example 100, (2S,4R)-1-[(2S)-2-{2-[4-(4-{4-[3-(3-chloro-4-cyanophenyl)-5,5-dimethyl-4-oxo-2-sulfanylideneimidazolidin-1-yl]-3-fluorophenyl}phen-oxy)butoxy]acetamido}-3,3-dimethylbutanoyl]-4-hydroxy-N-{[4-(4-methyl-1,3-oxazol-5-yl)phenyl]methyl}pyrrolidine-2-carboxamide] | > 71 | – | < 50
Cc1ncoc1-c1ccc([C@H](C)NC(=O)[C@@H]2C[C@@H](O)CN2C(=O)[C@@H](NC(=O)COCCCCOc2ccc(-c3ccc(N4C(=S)N(c5ccc(C#N)c(C(F)(F)F)c5)C(=O)C4(C)C)cc3)cc2)C(C)(C)C)cc1 [Example 101, (2S,4R)-1-[(2S)-2-(2-{4-[4-(4-{3-[4-cyano-3-(trifluoromethyl)phenyl]-5,5-dimethyl-4-oxo-2-sulfanylideneimidazolidin-1-yl}phenyl)phenoxy]butoxy}acetamido)-3,3-dimethylbutanoyl]-4-hydroxy-N-[(1S)-1-[4-(4-methyl-1,3-oxazol-5-l)phenyl]ethyl]pyrrolidine-2-carboxamide] | > 71 | – | < 50
Cc1ncsc1-c1ccc(CNC(=O)[C@@H]2C[C@@H](O)CN2C(=O)[C@@H](NC(=O)COCCCCOc2ccc(-c3ccc(N4C(=S)N(c5ccc(C#N)c(C(F)(F)F)c5)C(=O)C4(C)C)cn3)cc2)C(C)(C)C)cc1 [Example 102, (2S,4R)-1-[(2S)-2-(2-{4-[4-(5-{3-[4-cyano-3-(trifluoromethyl)phenyl]-5,5-dimethyl-4-oxo-2-sulfanylideneimidazolidin-1-yl}pyridin-2-yl)phenoxy]butoxy}acetamido)-3,3-dimethylbutanoyl]-4-hydroxy-N-{[4-(4-methyl-1,3-thiazol-5-yl)phenyl]methyl}pyrrolidine-2-carboxamide] | > 71 | – | < 50
